# Test results from patent US20260165954A1, “BIO[…]-AND-RESERVOIR SYSTEM FOR THE PULSED DELIVERY OF BIOACTIVE AGENTS” (University of Mississippi, priority 2022, published 2026).
# Legend:
# [1] = In vitro release of DOI from single-layered CAPP films; type: physicochemical; conditions: 0.1 mm single-layered CAPP films; FIG. 12A
# Source text: (§1) FIGS. 12A-12G show in vivo delivery of 5HT2A agonist DOI from single- and multi-layer CAPP films. (FIG. 12A) In vitro cumulative release of DOI from 0.1 mm CAPP films. (FIG. 12B) Scheme of subcutaneous implantation of 0.1 mm DOI-loaded CAPP films and experimental time course. Pharmacokinetics of DOI released from subcutaneously implanted, single-layered CAPP films in (FIG. 12C) plasma (n=4) and (FIG. 12D) brain (n=4). (FIG. 12E) Scheme of subcutaneous implantation of multilayered CAPP films and experimental time course. Pharmacokinetics of DOI released from multilayered CAPP films in (FIG. 12F) plasma (n=4), and (FIG. 12G) brain (n=4).
# (§2) To confirm that 5HT2A agonists could be effectively delivered in vivo from an implantable drug delivery system, the encapsulation and release of DOI (2,5-dimethoxy-4-iodoamphetamine) from CAPP films was investigated. DOI release was first observed from single-layered CAPP films. […] The DOI-loaded, single-layered films were next implanted subcutaneously in CD-1 mice (50:50 M:F mice) and monitored the pharmacokinetics and biodistribution of DOI after implantation (FIGS. 12B-12D). […] After this initial optimization, multilayered CAPP films with DOI encapsulated in the ‘release’ layers were generated and implanted them subcutaneously in CD-1 mice (50:50 M:F mice; FIG. 12E). […]
# [2] = Pharmacokinetics of DOI from subcutaneously implanted single-layered CAPP films; type: in vivo; conditions: CD-1 mice
# Source text: as §1, §2
# [3] = Pharmacokinetics of DOI from subcutaneously implanted multilayered CAPP films; type: in vivo; conditions: subcutaneous multilayered CAPP films, CD-1 mice
# Source text: as §1, §2
smiles,measurement,setting,value
"COc1cc(CC(C)N)c(OC)cc1I (centres unmarked) [DOI, 2,5-dimethoxy-4-iodoamphetamine]",in vitro release kinetics,[1],closely mimicked that of rhodamine and FITC
same,time of peak plasma concentration post-implantation,"[2]; subcutaneous 0.1 mm DOI-loaded single-layered CAPP films, plasma, FIG. 12C",2 h
same,brain distribution and clearance,"[2]; subcutaneous single-layered CAPP films, brain, FIG. 12D",rapidly accumulated in the brain after which it was cleared with similar kinetics to the blood plasma
same,absorption and tissue accumulation from the first 'release' layer,[3],rapid absorption of DOI and accumulation in the brain (as well as kidneys and liver)
same,time of second pulse in plasma and organs after the first pulse,[3]; FIGS. 12F-12G,~20 h
